Data from patent US20080317769A1, “Vaccine Composition Comprising Alpha-Galactosylceramide as an Adjuvant For Intranasal Administration” (priority 2005, published 2008).

Experiments:
[1] = system: OVA257-264 pulsed CFSE^high spleen cells; assay: In vivo CTL assay: specific lysis of OVA257-264 pulsed CFSE-high cells by FACS, C57BL/6 mice; settings: all αGalCer dose groups + OVA intranasal, vs vehicle alone or OVA alone, dose-dependent
Protocol: Spleen cells were separated from naive C57BL/6 mice, which were pulsed with 1 μM of OVA257-264 at 37° C. for 90 minutes. The pulsed cells were labeled with 20 μM of CFSE (Molecular Probes, USA) at 37° C. for 15 minutes, resulting in OVA257-264 pulsed CFSE^high cells. In the meantime, the unpulsed cells were labeled with 2 μM of CFSE (Molecular Probes, USA) at 37° C. for 15 minutes, resulting in the OVA257-264 unpulsed CFSE^low cells. The equal numbers of peptide-pulsed CFSE^high cells and unpulsed CFSE^low cells were mixed, which were intravenously injected to mice at the number of 2×10^7 cells one week after the final immunization. 24 hours later, specific lysis of peptide-pulsed CFSE^high cell was investigated by using FACS in spleen, mesenteric lymph node (MLN) and cervical lymph node (CLN).

[2] = system: IFN-γ and IL-4 production; assay: IFN-γ and IL-4 levels in spleen and CLN, Balb/c mice; assay type: in vivo
Protocol: It was directly investigated whether α-GalCer nasal vaccine adjuvant skews immune response into Th1 or Th2 immune response. To measure the secretions of cytokines, cells were obtained from spleen and cervical lymph node (CLN) a week after the final immunization. The cells ([…]) were cultured with 500 μg/ml of OVA for 4 days. The secretions of IFN-γ and IL-4 in the culture supernatant were measured by using the mouse IFN-γ and IL-4 OptELA set ELISA kit (BD Pharmigen) according to the manufacturer's instruction.
As described in Example 2, different amounts of αGalCer (0.125, 0.5, 2.0 μg) and OVA were intranasally administered to Balb/c mice (Charles River Laboratories, Oriet Co., Ltd., Korea), followed by measurement of the levels of IFN-γ and IL-4 in spleen and CLN.

[3] = system: IFN-γ-producing CD8+ T cells; assay: IFN-γ-producing CD8+ T cells by intracellular cytokine staining, Balb/c mice, OVA; assay type: in vivo; settings: splenocytes cultured 4 days with 500 μg/ml OVA, with the increase of αGalCer concentration
Protocol: OVA dose not include an epitope peptide binding to a MHC class I molecule in Balb/c mouse. So, to investigate cytotoxic activity induced by αGalCer adjuvant in the Balb/c mouse, the numbers of IFN-γ-producing CD8+ T cells were measured (FIG. 11). Particularly, the cells (2×10^6 cells/ml) were cultured for 4 days with 500 μg/ml of OVA, to which 1 μl/ml of GolgiPug™ (BD Pharmigen, USA) was added 6 hours before termination of the culture. Then, staining was performed by using FITC-conjugated CD3 mAb (Clone 145-2C11, Biolegend Inc, USA), PE-conjugated CD8 mAb (Clone 53-6.7, Biolegend Inc, USA) and APC-conjugated IFN-γ mAb (Clone XMG1.2, Biolegend Inc, USA). Intracellular staining was performed with BD Cytofix/Cytoperm Plus™ (BD Pharmigen, USA) according to the manufacturer's instruction, and the stained cells were analyzed with FACSCalibur (BD Bioscience, USA) and CellQuest software (BD Bioscience, USA).

[4] = system: influenza virus A/PR/8/34; design: species or system Balb/c mice; settings: mouse, in vivo
EG7 tumor cells = assay: EG7 tumor challenge after intranasal immunization with OVA and αGalCer; assay type: in vivo; settings: C57BL/6 mice, 3×10^6 EG7 cells s.c., day 14
Protocol: To confirm whether αGalCer could be used as a nasal vaccine adjuvant inducing anticancer activity, C57BL/6 mice were immunized with 100 μg of OVA alone or together with αGalCer (0.125, 0.5, 2.0 μg) by the intranasal administration three times at one-week intervals. Two weeks after the final immunization, 3×10^6 EG7 tumor cells were subcutaneously inoculated in the left flank of the immunized mice. On the 14th day of the inoculation, the mice were sacrificed and the palpable tumors were weighed.

[5] = system: OT1 cells (OVA specific CD8+ T cells); assay: Intracellular IL-2 and IFN-γ of OT1 cells after OVA257-264 peptide stimulation; assay type: in vivo, mouse; settings: OVA + 2.0 μg αGalCer intranasal vs OVA alone; 5 μM OVA257-264 peptide for 6 hours
Protocol: To confirm whether the activated T-cells were differentiated into fully functional CTL, 2×10^6/ml of cells were further stimulated with 5 μM of OVA257-264 peptide for 6 hours, by the same manner as described in Example 4, and then intracellular IL-2 and IFN-γ levels were measured by using APC-conjugated IL-2 (Clone JES6-5H4, Biolegend Inc., USA) and APC-conjugated IFN-γ mAb (Clone XMG1.2 Biolegend Inc., USA).

[6] = system: IFN-γ and IL-4 production; assay: IFN-γ and IL-4 production of spleen and CLN cells cultured with inactive PR8; assay type: in vivo; settings: Balb/c mice; inactivated PR8 + αGalCer intranasal; cells cultured with inactive PR8 for 5 days
Protocol: To examine the role of αGalCer as an adjuvant of a killed virus, influenza virus A/PR/8/34 (PR8), which was inactivated with formalin, was used as an antigen to examine the anti-virus immune response. Balb/c mice were immunized with indicated amounts (1 μg, 10 μg) of inactivated PR8 alone or together with αGalCer by the intranasal administration twice at two-week intervals. Two weeks after the final immunization, the mice were sacrificed and following experiments were performed.
The supernatants were obtained and the levels of IFN-γ and IL-4 therein were measured by the same manner as described in Example 2.

In the case of `CCCCCCCCCCCCCCCCCCCCCCCCCC(=O)N[C@@H](CO[C@H]1O[C@H](CO)[C@H](O)[C@H](O)[C@H]1O)[C@H](O)[C@H](O)CCCCCCCCCCCCCC` [αGalCer, alpha-galactosylceramide], the “CTL cytotoxicity (specific lysis) in spleen, MLN and CLN” value [1] is reported as “dose-dependent lytic activity”, the “CTL cytotoxicity (specific lysis) in spleen, MLN and CLN” value ([1]; listed as α-GalCer) is reported as “higher cytotoxicity” and the “IL-4 level in spleen, comparison of αGalCer doses” value ([2]; 0.5 μg of αGalCer intranasally coadministered with OVA) is reported as “highest level of IL-4”. The “production of IFN-γ and IL-4 in spleen and CLN” value ([2]; all groups coimmunized with αGalCer (0.125, 0.5, 2.0 μg) and OVA) was “significant increase”, the “level of mucosal IgA in the lung wash and production of IL-4 in CLN, relation to the amount of αGalCer” value ([2]; αGalCer dose series + OVA intranasal) was “inverse proportion” and the “numbers of IFN-γ-producing CD8+ T cells, relation to αGalCer concentration” value [3] was “decreased”. The “weight loss recovery after virus infection” value [4] was “rapid rate of weight loss recovery”, the “fraction of mice with tumor masses” value (EG7 tumor cells; 0.125 μg αGalCer + 100 μg OVA intranasal) was “⅓” and the tumor formation (EG7 tumor cells; 0.5 μg and 2.0 μg αGalCer together with OVA intranasal) was “completely inhibited”. The “levels of OT1 cells secreting IL-2 and IFN-γ” value [5] was “higher” and the “levels of Th1 cytokine IFN-γ and Th2 cytokine IL-4 in spleen and CLN” value [6] was “significantly increased”.
